Test: xn = mol fraction of the nth substance listed
Details: 101 kPa, Liquid; for mass density: Vibrating tube method

C1CCCCCCC1 [cyclooctane] + Cc1ccccc1
Details | mass density, 308.15 K [kg/m3] | mass density, 313.15 K [kg/m3] | viscosity, 308.15 K [mPa·s] | viscosity, 313.15 K [mPa·s]
x2 = 0 | 823.6 | 819.7 | 1.803 | 1.636
x2 = 0.0997 | 824.6 | 820.7 | 1.443 | 1.326
x2 = 0.1951 | 826 | 822.1 | 1.198 | 1.112
x2 = 0.3032 | 828.1 | 824.1 | 1.003 | 0.9333
x2 = 0.3904 | 830 | 826 | 0.8748 | 0.8203
x2 = 0.4868 | 832.5 | 828.5 | 0.7834 | 0.701
x2 = 0.5898 | 835.6 | 831.4 | 0.6981 | 0.6579
x2 = 0.6919 | 839.2 | 834.9 | 0.6266 | 0.5912
x2 = 0.8003 | 843.4 | 839.1 | 0.5673 | 0.5364
x2 = 0.888 | 847.3 | 842.9 | 0.5361 | 0.5033

c1ccccc1 [benzene] + CCCCCCC
Details | mass density, 308.15 K [kg/m3] | mass density, 313.15 K [kg/m3] | viscosity, 308.15 K [mPa·s] | viscosity, 313.15 K [mPa·s]
x1 = 0.1099 | 683.6 | 679.4 | 0.3518 | 0.3342
x1 = 0.2052 | 695.3 | 691.1 | 0.3593 | 0.3356
x1 = 0.2896 | 706.6 | 702.4 | 0.3562 | 0.3387
x1 = 0.4212 | 726.5 | 722.1 | 0.3632 | 0.345
x1 = 0.5078 | 740.9 | 736.4 | 0.3724 | 0.3534
x1 = 0.6087 | 760 | 755.4 | 0.3925 | 0.3667
x1 = 0.7263 | 785.5 | 780.8 | 0.4094 | 0.3879
x1 = 0.7936 | 801.9 | 797.1 | 0.4262 | 0.4031
x1 = 0.8987 | 830.6 | 825.6 | 0.4734 | 0.4408
x1 = 1 | 862.9 | 857.7 | 0.5272 | 0.4942

CCc1ccccc1 [ethylbenzene] + c1ccccc1
Details | mass density, 308.15 K [kg/m3] | mass density, 313.15 K [kg/m3] | viscosity, 308.15 K [mPa·s] | viscosity, 313.15 K [mPa·s]
x2 = 0 | 853.7 | 849.5 | 0.5652 | 0.5294
x2 = 0.0877 | 854.1 | 849.8 | 0.5584 | 0.5282
x2 = 0.1855 | 854.6 | 850.2 | 0.5563 | 0.5234
x2 = 0.295 | 855.2 | 850.8 | 0.5472 | 0.5172
x2 = 0.4137 | 856 | 851.5 | 0.5392 | 0.5096
x2 = 0.498 | 856.6 | 852.1 | 0.5382 | 0.508
x2 = 0.5965 | 857.5 | 852.8 | 0.5382 | 0.5039
x2 = 0.7108 | 858.7 | 853.9 | 0.5308 | 0.4996
x2 = 0.7904 | 859.7 | 854.8 | 0.5263 | 0.4954
x2 = 0.8983 | 861.2 | 856.2 | 0.5309 | 0.4949

From the NIST ThermoML archive (doi:10.1007/s10765-009-0667-2)
